Source: PubChem BioAssay AID1963831 (Molecular Pharmacology Branch, DTP, NCI, 2024)

Test system: 889142-216-R-J1-PDC complex spheroid viability
Test: Anticancer human tumor 889142-216-R-J1-PDC patient-derived bladder carcinoma cell line growth inhibition [POLQ]
Settings: for IC50: curve of first compound; for viability, T/C: stronger effect = lower value
Procedure, shortened: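 Growth inhibition in 3D: complex spheroids (tumor PDC, HUVEC, MSC) treated with POLQ inhibitor combinations; where Cmax unknown, highest tested concentration 10 microM, except SN-38 at 1 microM.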

[1] = second compound 0.0316 µM, first compound 0.0316 µM
[2] = second compound 0.0316 µM, first compound 0.1 µM
[3] = second compound 0.0316 µM, first compound 0.316 µM
[4] = second compound 0.0316 µM, first compound 1 µM
[5] = second compound 0.0316 µM, first compound 3.16 µM
[6] = second compound 0.0316 µM, first compound 10 µM
[7] = second compound 0.1 µM, first compound 0.0316 µM
[8] = second compound 0.1 µM, first compound 0.1 µM
[9] = second compound 0.1 µM, first compound 0.316 µM
[10] = second compound 0.1 µM, first compound 1 µM
[11] = second compound 0.1 µM, first compound 3.16 µM
[12] = second compound 0.1 µM, first compound 10 µM
[13] = second compound 0.316 µM, first compound 0.0316 µM
[14] = second compound 0.316 µM, first compound 0.1 µM
[15] = second compound 0.316 µM, first compound 0.316 µM
[16] = second compound 0.316 µM, first compound 1 µM
[17] = second compound 0.316 µM, first compound 3.16 µM
[18] = second compound 0.316 µM, first compound 10 µM
[19] = second compound 1 µM, first compound 0.0316 µM
[20] = second compound 1 µM, first compound 0.1 µM
[21] = second compound 1 µM, first compound 0.316 µM
[22] = second compound 1 µM, first compound 1 µM
[23] = second compound 1 µM, first compound 3.16 µM
[24] = second compound 1 µM, first compound 10 µM
[25] = second compound 3.16 µM, first compound 0.0316 µM
[26] = second compound 3.16 µM, first compound 0.1 µM
[27] = second compound 3.16 µM, first compound 0.316 µM
[28] = second compound 3.16 µM, first compound 1 µM
[29] = second compound 3.16 µM, first compound 3.16 µM
[30] = second compound 3.16 µM, first compound 10 µM
[31] = second compound 10 µM, first compound 0.0316 µM
[32] = second compound 10 µM, first compound 0.1 µM
[33] = second compound 10 µM, first compound 0.316 µM
[34] = second compound 10 µM, first compound 1 µM
[35] = second compound 10 µM, first compound 3.16 µM
[36] = second compound 10 µM, first compound 10 µM
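Note: spheroids exposed to compounds for seven days.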
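Throughout, for viability, T/C: 100% = DMSO vehicle control viability.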

CCCS(=O)(=O)Nc1ccc(F)c(C(=O)c2c[nH]c3ncc(-c4ccc(Cl)cc4)cc23)c1F + COC1C(OC(N)=O)C(O)C(Oc2ccc3c(O)c(NC(=O)c4ccc(O)c(CC=C(C)C)c4)c(=O)oc3c2C)OC1(C)C
IC50 (second compound 0.0316 µM): 5.53 µM | IC50 (second compound 0.1 µM): 4.99 µM | IC50 (second compound 0.316 µM): 7.02 µM | IC50 (second compound 1 µM): 6.23 µM | IC50 (second compound 3.16 µM): 5.26 µM | IC50 (second compound 10 µM): 6.11 µM | viability, T/C [1]: 108% | viability, T/C [2]: 108% | viability, T/C [3]: 93.5% | viability, T/C [4]: 109% | viability, T/C [5]: 62.2% | viability, T/C [6]: 36.9% | viability, T/C [7]: 126% | viability, T/C [8]: 110% | viability, T/C [9]: 98.5% | viability, T/C [10]: 91.9% | viability, T/C [11]: 55% | viability, T/C [12]: 34.9% | viability, T/C [13]: 126% | viability, T/C [14]: 98.3% | viability, T/C [15]: 92.8% | viability, T/C [16]: 99.5% | viability, T/C [17]: 69.7% | viability, T/C [18]: 39.6% | viability, T/C [19]: 101% | viability, T/C [20]: 109% | viability, T/C [21]: 104% | viability, T/C [22]: 93.9% | viability, T/C [23]: 64.5% | viability, T/C [24]: 40% | viability, T/C [25]: 116% | viability, T/C [26]: 115% | viability, T/C [27]: 98% | viability, T/C [28]: 80.4% | viability, T/C [29]: 63.9% | viability, T/C [30]: 34.6% | viability, T/C [31]: 104% | viability, T/C [32]: 105% | viability, T/C [33]: 95.5% | viability, T/C [34]: 90% | viability, T/C [35]: 68.2% | viability, T/C [36]: 36.2%

COc1ccc([C@@H](O)c2cc(-c3ncnc4cc(N5CCOCC5)ccc34)c(F)cc2Cl)nn1 + COC1C(OC(N)=O)C(O)C(Oc2ccc3c(O)c(NC(=O)c4ccc(O)c(CC=C(C)C)c4)c(=O)oc3c2C)OC1(C)C
IC50 (second compound 0.0316 µM): 4.25 µM | IC50 (second compound 0.1 µM): > 10 µM | IC50 (second compound 0.316 µM): 6.29 µM | IC50 (second compound 1 µM): 2.87 µM | IC50 (second compound 3.16 µM): 3.64 µM | IC50 (second compound 10 µM): 4.53 µM | viability, T/C [1]: 88.8% | viability, T/C [2]: 88.3% | viability, T/C [3]: 63.9% | viability, T/C [4]: 63% | viability, T/C [5]: 55.6% | viability, T/C [6]: 41.5% | viability, T/C [7]: 104% | viability, T/C [8]: 125% | viability, T/C [9]: 76.2% | viability, T/C [10]: 62.7% | viability, T/C [11]: 55.7% | viability, T/C [12]: 35.9% | viability, T/C [13]: 92.2% | viability, T/C [14]: 104% | viability, T/C [15]: 87% | viability, T/C [16]: 79.1% | viability, T/C [17]: 63.4% | viability, T/C [18]: 41.4% | viability, T/C [19]: 90.3% | viability, T/C [20]: 112% | viability, T/C [21]: 86.7% | viability, T/C [22]: 59.8% | viability, T/C [23]: 60.3% | viability, T/C [24]: 37.3% | viability, T/C [25]: 81.3% | viability, T/C [26]: 120% | viability, T/C [27]: 77.6% | viability, T/C [28]: 66.9% | viability, T/C [29]: 56.9% | viability, T/C [30]: 39.8% | viability, T/C [31]: 98.2% | viability, T/C [32]: 82.1% | viability, T/C [33]: 104% | viability, T/C [34]: 74.8% | viability, T/C [35]: 59.6% | viability, T/C [36]: 32.9%

Cn1ncnc1[C@H]1c2n[nH]c(=O)c3cc(F)cc(c23)N[C@@H]1c1ccc(F)cc1 + COC1C(OC(N)=O)C(O)C(Oc2ccc3c(O)c(NC(=O)c4ccc(O)c(CC=C(C)C)c4)c(=O)oc3c2C)OC1(C)C
IC50 (second compound 0.0316 µM): > 0.1 µM | IC50 (second compound 0.1 µM): > 0.1 µM | IC50 (second compound 0.316 µM): > 0.1 µM | IC50 (second compound 1 µM): > 0.1 µM | IC50 (second compound 3.16 µM): > 0.1 µM | IC50 (second compound 10 µM): > 0.1 µM | viability, T/C (second compound 0.0316 µM, first compound 0.000316 µM): 97% | viability, T/C (second compound 0.0316 µM, first compound 0.001 µM): 95% | viability, T/C (second compound 0.0316 µM, first compound 0.00316 µM): 93.1% | viability, T/C (second compound 0.0316 µM, first compound 0.01 µM): 80.6% | viability, T/C [1]: 73.3% | viability, T/C [2]: 76.8% | viability, T/C (second compound 0.1 µM, first compound 0.000316 µM): 108% | viability, T/C (second compound 0.1 µM, first compound 0.001 µM): 92.7% | viability, T/C (second compound 0.1 µM, first compound 0.00316 µM): 74.2% | viability, T/C (second compound 0.1 µM, first compound 0.01 µM): 73.7% | viability, T/C [7]: 73.4% | viability, T/C [8]: 72.5% | viability, T/C (second compound 0.316 µM, first compound 0.000316 µM): 90.8% | viability, T/C (second compound 0.316 µM, first compound 0.001 µM): 87.8% | viability, T/C (second compound 0.316 µM, first compound 0.00316 µM): 90.9% | viability, T/C (second compound 0.316 µM, first compound 0.01 µM): 91.9% | viability, T/C [13]: 85% | viability, T/C [14]: 66.6% | viability, T/C (second compound 1 µM, first compound 0.000316 µM): 88.9% | viability, T/C (second compound 1 µM, first compound 0.001 µM): 77.4% | viability, T/C (second compound 1 µM, first compound 0.00316 µM): 89.2% | viability, T/C (second compound 1 µM, first compound 0.01 µM): 117% | viability, T/C [19]: 85% | viability, T/C [20]: 79.6% | viability, T/C (second compound 3.16 µM, first compound 0.000316 µM): 97.9% | viability, T/C (second compound 3.16 µM, first compound 0.001 µM): 100% | viability, T/C (second compound 3.16 µM, first compound 0.00316 µM): 103% | viability, T/C (second compound 3.16 µM, first compound 0.01 µM): 83.9% | viability, T/C [25]: 71.5% | viability, T/C [26]: 74.1% | viability, T/C (second compound 10 µM, first compound 0.000316 µM): 72.9% | viability, T/C (second compound 10 µM, first compound 0.001 µM): 115% | viability, T/C (second compound 10 µM, first compound 0.00316 µM): 89.8% | viability, T/C (second compound 10 µM, first compound 0.01 µM): 119% | viability, T/C [31]: 80.4% | viability, T/C [32]: 59.6%
